“Also recorded” adds a separate entry of the source. Marks after values point to notes of the source that are not given here.
System: scopolamine induced memory deficit in male Wistar rats
Assay: Object recognition task (ORT), scopolamine induced memory deficit
Assay type: in vivo
Details: for d2 (discrimination index): 1 h retention, mean (SEM)
From the text: The objective of this study is to evaluate the efficacious dose range of roflumilast with regard to cognitive improvement effects by using scopolamine induced memory deficit on object memory performance in male Wistar rats. Memory acquisition processes are investigated using the object recognition test (ORT).
Maintenance of Animals: Sixteen 3-4 month old male Wistar rats (Charles River, Sulzfeld, Germany) were used for the study. All animals were housed individually in standard green line Tecniplast IVC cages on stardust bedding. The animals were housed on a reversed 12/12 h light/dark cycle (lights on from 07:00 pm to 07:00 am) and had free access to food and water. The rats were housed and tested in the same room. A radio, playing softly, provided background noise in the room. All testing was performed between 09:00 am and 06:00 pm.
Preparation of Compounds: Drugs were prepared daily, except as indicated otherwise. Roflumilast (Takeda, Konstanz, Germany, MW 403.21) was dissolved in 98% methylcellulose solution (0.5% methylcellulose) and 2% Tween 80. Roflumilast in doses of 0 (vehicle), 0.0001, 0.0003, 0.001, 0.003, 0.01 and 0.03 mg/kg was administered intraperitoneally (ip, injection volume 1 ml/kg). Scopolamine (in form of scopolamine hydrobromide) was dissolved in saline (0.9% NaCl). Scopolamine hydrobromide was administered intraperitoneally at a dose of 0.1 mg/kg (ip, injection volume 1 ml/kg). Scopolamine and roflumilast were administered 30 min before T1.
Object Recognition Task in Rats: The ORT was performed as described elsewhere (Ennaceur and Delaceur, 1988, Behav Brain Res, Vol 31, pp 47-59; Akkerman et al; 2012, Behav Brain Res, Vol 232, pp 335-347). The apparatus consisted of a circular arena, 83 cm in diameter. The back half of the 40 cm high wall was made of grey PVC and the front was made of transparent PVC. Fluorescent red tubes and a light bulb provided a constant illumination of about 20 lux on the floor of the apparatus. The light intensity was equal in the different parts of the apparatus.
Two objects were placed in symmetrical positions at the mid-line between the gray and transparent halves of the arena, about ten centimeters away from wall. Four different sets of objects were available: 1) a standard 1 L brown transparent glass bottle (diameter 10 cm, height 22 cm) filled with water, 2) a metal cube (10.0×5.0×7.5 cm) with two holes (diameter 1.9 cm), 3) a cone consisting of a gray PVC base (maximal diameter 18 cm) with a collar on top made of brass (total height 16 cm), and 4) an aluminium cube with a tapering top (13.0×8.0×8.0 cm). Objects were presented to the animals in a balanced manner to avoid object or place biases. Rats were unable to displace the objects.
A test session comprised two trials, each with durations of 3 min. During the learning trial (T1) the apparatus contains two identical objects (object al and a2). Rats were always introduced into the apparatus with their nose towards the transparent wall segment (i.e. facing outwards to the front of the arena). Subsequently, rats were put back in its home cage for a 1 h interval. After the retention interval, rats were put back into the arena for the […] (T2). In T2, the two objects from T1 were replaced by one identical copy (a3) and a different novel object (b). The times spent in exploring each object during T1 and T2 were recorded manually on a personal computer.
Exploration was defined in the following manner: directing the nose to the object at a distance of no more than 2 cm and/or touching the object with the nose. Sitting on the object was not considered as exploratory behavior. In order to avoid the presence of olfactory cues, the objects were thoroughly cleaned with a 70% ethanol solution before each trial.
Prior to compound testing, the animals were handled for 5 min on 2 consecutive days and allowed to explore the ORT arena, also for 5 min. […]

O=C(Nc1c(Cl)cncc1Cl)c1ccc(OC(F)F)c(OCC2CC2)c1 [roflumilast, N-(3,5-dichloropyridin-4-yl)-3-cyclopropylmethoxy-4-difluoromethoxybenzamide]
d2 value compared to the vehicle condition (post-hoc Bonferroni t-test) (0.0001 mg/kg ip + scopolamine): significantly lower
d2 value compared to the scopolamine condition (post-hoc Bonferroni t-test) (0.003 mg/kg ip + scopolamine): significantly higher
d2 value compared to the scopolamine condition (post-hoc Bonferroni t-test) (0.01 mg/kg ip + scopolamine): significantly higher
d2 value compared to the scopolamine condition (post-hoc Bonferroni t-test) (0.03 mg/kg ip + scopolamine): significantly higher
d2 (discrimination index) (roflumilast 0.0001 mg/kg ip + scopolamine 0.1 mg/kg ip): 0.05 (0.05)
d2 (discrimination index) (roflumilast 0.0003 mg/kg ip + scopolamine 0.1 mg/kg ip): 0.16 (0.06) #
d2 (discrimination index) (roflumilast 0.001 mg/kg ip + scopolamine 0.1 mg/kg ip): 0.27 (0.06) ###
d2 (discrimination index) (roflumilast 0.003 mg/kg ip + scopolamine 0.1 mg/kg ip): 0.43 (0.06) ###
d2 (discrimination index) (roflumilast 0.01 mg/kg ip + scopolamine 0.1 mg/kg ip): 0.34 (0.06) ###
d2 (discrimination index) (roflumilast 0.03 mg/kg ip + scopolamine 0.1 mg/kg ip): 0.30 (0.07) ###
effect on memory function in rats treated with scopolamine (ORT) (single ip dose 0.0001 mg/kg, 0.0001 mg/kg): No effect
effect on memory function in rats treated with scopolamine (ORT) (single ip dose 0.0003 mg/kg, 0.0003 mg/kg): intermediate memory improvement; also recorded: increasingly less efficacy
effect on memory function in rats treated with scopolamine (ORT) (single ip dose 0.001 mg/kg, 0.001 mg/kg): intermediate memory improvement; also recorded: increasingly less efficacy
effect on memory function in rats treated with scopolamine (ORT) (single ip dose 0.003 mg/kg, 0.003 mg/kg): fully restore memory function
effect on memory function in rats treated with scopolamine (ORT) (single ip dose 0.01 mg/kg): increasingly less efficacy
effect on memory function in rats treated with scopolamine (ORT) (single ip dose 0.03 mg/kg): increasingly less efficacy

— patent publication US10357486B2, “Treatment of cognitive impairment with PDE4 inhibitor” (Universiteit Maastricht, priority 2013, dated 2019)
